These results are taken from ChEMBL document CHEMBL1201861, “Genomics of Drug Sensitity in Cancer screening data, Wellcome Trust Sanger Institute”.

Each structure is given as a SMILES string. Where only a bound is given, the exact number is not on record here.

One test relates to ST486. Nature of the test: SANGER: Inhibition of human ST486 cell growth in a cell viability assay. The format is functional, cell-based. To be noted: Homo sapiens, ST486.
The subject of another test is PF-382. Nature of the test: cells. The format is functional, cell-based, Homo sapiens. To be noted: Homo sapiens, PF-382.
The next test deals with NCI-H1417. Nature of the test: cells. Conditions: Homo sapiens, NCI-H1417. The format is functional, cell-based, Homo sapiens.
In another test the test system is NCI-H2141. Kind of test: cells. The format is functional, cell-based, Homo sapiens. Conditions: Homo sapiens, NCI-H2141.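 Note: growth inhibition of human NCI-H2141 cells, read out with a cell viability assay.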
The next test concerns Daudi. Kind of test: cells. To be noted: Homo sapiens, Daudi. The test is classed as functional, cell-based, Homo sapiens.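 Note: growth inhibition of Daudi cells, read out by a viability assay.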
The test system of a further test is NCI-H719. Kind of test: cells. The test is classed as functional, cell-based, Homo sapiens. Conditions: Homo sapiens, NCI-H719.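 Note: growth inhibition of the cultured cell line, read out with a viability assay.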
In another test the test system is SCC-3. Kind of test: cells. The test is classed as functional, cell-based, Homo sapiens. To be noted: Homo sapiens, SCC-3.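 Note: cell viability assay measuring inhibition of SCC-3 cell growth.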
In a further test the test system is YT. Nature of the test: cells. The test is classed as functional, cell-based, Homo sapiens. Conditions: Homo sapiens, YT.
The subject of another test is BC1 cell line. Nature of the test: SANGER: Inhibition of human BC-1 cell growth in a cell viability assay. The format is functional, cell-based. To be noted: Homo sapiens, BC1.
A further test has as its system IM-9. Nature of the test: SANGER: Inhibition of human IM-9 cell growth in a cell viability assay. The test is classed as functional, cell-based. Conditions: Homo sapiens, IM-9.
A further test deals with TUR. Kind of test: cells. The format is functional, cell-based, Homo sapiens. To be noted: Homo sapiens, TUR.

Description for Daudi: SANGER: Inhibition of human Daudi cell growth in a cell viability assay.
Description for NCI-H1417: SANGER: Inhibition of human NCI-H1417 cell growth in a cell viability assay.
Description for NCI-H2141: SANGER: Inhibition of human NCI-H2141 cell growth in a cell viability assay.
Description for NCI-H719: SANGER: Inhibition of human NCI-H719 cell growth in a cell viability assay.
Description for PF-382: SANGER: Inhibition of human PF-382 cell growth in a cell viability assay.
Description for SCC-3: SANGER: Inhibition of human SCC-3 cell growth in a cell viability assay.
Description for TUR: SANGER: Inhibition of human TUR cell growth in a cell viability assay.
Description for YT: SANGER: Inhibition of human YT cell growth in a cell viability assay.

With `CC[C@H](CO)Nc1nc(NCc2ccccc2)c2ncn(C(C)C)c2n1` [SELICICLIB], the IC50 – broadly, the concentration that gives 50% inhibition – was 10400 nM in the test with ST486; over 16000 nM in the test on PF-382; over 16 µM in the test with NCI-H1417; over 16 µM in the test on NCI-H2141; over 16000 nM with Daudi; over 16 µM with NCI-H719. Besides, the IC50 in the test on SCC-3 is 14300 nM; in the test with YT, over 16 µM; in the test with BC1 cell line, over 16 µM; with IM-9, over 16 µM; with TUR, over 16 µM.

Consider `COc1cc2ncn(-c3cc(OCc4ccccc4C(F)(F)F)c(C(N)=O)s3)c2cc1OC` [GW843682X], for which the IC50 with ST486 is 20.4 nM; in the test on PF-382, 33.4 nM; in the test with NCI-H1417, over 0.256 µM; in the test with NCI-H2141, 0.159 µM; in the test on Daudi, 34.7 nM; in the test with NCI-H719, over 0.256 µM. Also, the IC50 with SCC-3 was 48.7 nM; in the test with YT, over 0.256 µM; in the test with BC1 cell line, 0.244 µM; with IM-9, over 0.256 µM; in the test with TUR, over 0.256 µM.

Regarding `C#Cc1cccc(Nc2ncnc3cc(OCCOC)c(OCCOC)cc23)c1` [ERLOTINIB], the IC50 was over 2000 nM with ST486; over 2000 nM in the test on PF-382; over 2 µM in the test with NCI-H1417; over 2 µM with NCI-H2141; over 2000 nM in the test on Daudi; over 2 µM in the test with NCI-H719. Further, the IC50 was over 2000 nM in the test on SCC-3; over 2 µM in the test on YT; over 2 µM in the test with BC1 cell line; over 2 µM with IM-9; over 2 µM in the test with TUR.

Regarding `COc1cc2ncn(-c3cc(OCc4ccccc4S(C)(=O)=O)c(C#N)s3)c2cc1OC` [GSK-319347A], the IC50 with ST486 is over 5000 nM; in the test with PF-382, over 5000 nM; with NCI-H1417 it was over 5 µM; with NCI-H2141, over 5 µM; in the test with Daudi, over 5000 nM; in the test with NCI-H719 it was over 5 µM. Moreover, the IC50 with SCC-3 was over 5000 nM; in the test on YT, over 5 µM; in the test on BC1 cell line it was over 5 µM; in the test with IM-9, over 5 µM; in the test with TUR, over 5 µM.

For `N[C@@H](CSC(c1ccccc1)(c1ccccc1)c1ccccc1)C(=O)O` [S-TRITYL-L-CYSTEINE], the IC50 is 2090 nM with ST486; 1670 nM in the test on PF-382; over 5.12 µM in the test with NCI-H1417; 4.36 µM with NCI-H2141; 1170 nM in the test with Daudi; over 5.12 µM with NCI-H719. The IC50 with SCC-3 was 1260 nM; in the test with YT, over 5.12 µM; in the test on BC1 cell line it was over 5.12 µM; with IM-9, over 5.12 µM; with TUR, over 5.12 µM.

Turning to `Cc1ccc(-c2c(C(=O)CCl)n(CCCO)c3ncnc(N)c23)cc1`, the IC50 in the test on ST486 was over 4000 nM; in the test on PF-382, 1220 nM; in the test on NCI-H1417, over 4 µM; with NCI-H2141, over 4 µM; in the test on Daudi it was over 4000 nM; in the test on NCI-H719, over 4 µM. Moreover, the IC50 with SCC-3 was over 4000 nM; in the test on YT, over 4 µM; with BC1 cell line, over 4 µM; with IM-9 it was over 4 µM; with TUR it was over 4 µM.

Consider `COc1cc(N2CCN(C)CC2)ccc1Nc1ncc2c(n1)N(C)c1ccccc1C(=O)N2C`, for which the IC50 with ST486 is 3490 nM; with PF-382, 4940 nM; in the test with NCI-H1417, over 8 µM; in the test with NCI-H2141, over 8 µM; in the test with Daudi, over 8000 nM; in the test on NCI-H719 it was over 8 µM. Moreover, the IC50 in the test on SCC-3 is over 8000 nM; with YT it was 3.48 µM; in the test on BC1 cell line, over 8 µM; with IM-9, over 8 µM; in the test with TUR it was over 8 µM.

As to `CC(=O)O[C@H]1C(=O)[C@@]2(C)[C@H]([C@H](OC(=O)c3ccccc3)[C@]3(O)C[C@H](OC(=O)[C@H](O)[C@@H](NC(=O)c4ccccc4)c4ccccc4)C(C)=C1C3(C)C)[C@]1(OC(C)=O)CO[C@@H]1C[C@@H]2O` [PACLITAXEL], the IC50 in the test with ST486 was 12 nM; in the test with PF-382, 23.8 nM; in the test with NCI-H1417 it was over 0.102 µM; in the test on NCI-H2141, 0.081 µM; with Daudi it was 17.1 nM; in the test with NCI-H719, over 0.102 µM. For the same molecule, the IC50 is 12 nM with SCC-3; over 0.102 µM with YT; over 0.102 µM in the test on BC1 cell line; over 0.102 µM in the test on IM-9; over 0.102 µM in the test on TUR.

`COc1cc(-c2nn([C@H]3CC[C@H](N4CCN(C(C)=O)CC4)CC3)c3ncnc(N)c23)ccc1NC(=O)c1cc2ccccc2n1C`: the IC50 is over 5120 nM in the test with ST486; over 5120 nM in the test with PF-382; over 5.12 µM with NCI-H1417; over 5.12 µM in the test with NCI-H2141; over 5120 nM with Daudi; over 5.12 µM with NCI-H719. Besides, the IC50 in the test with SCC-3 was over 5120 nM; in the test with YT it was over 5.12 µM; in the test with BC1 cell line, over 5.12 µM; in the test with IM-9, over 5.12 µM; with TUR it was over 5.12 µM.

Turning to `CCN(CC)CCNC(=O)c1c(C)[nH]c(/C=C2\C(=O)Nc3ccc(F)cc32)c1C` [SUNITINIB], the IC50 was 6350 nM in the test on ST486; 3450 nM with PF-382; over 8 µM with NCI-H1417; over 8 µM with NCI-H2141; over 8000 nM in the test on Daudi; over 8 µM in the test on NCI-H719. The IC50 is 2830 nM with SCC-3; over 8 µM with YT; 7.25 µM in the test with BC1 cell line; over 8 µM with IM-9; over 8 µM with TUR.

Turning to `OCCCNc1cc(-c2ccnc(Nc3cccc(Cl)c3)n2)ccn1`, the IC50 is 31.2 nM in the test with ST486; 104 nM in the test with PF-382; over 0.256 µM in the test on NCI-H1417; 0.102 µM in the test on NCI-H2141; 55.3 nM in the test on Daudi; over 0.256 µM in the test with NCI-H719. In addition, the IC50 in the test with SCC-3 was 37.8 nM; with YT, over 0.256 µM; in the test on BC1 cell line it was 0.0695 µM; in the test on IM-9 it was over 0.256 µM; in the test on TUR, over 0.256 µM.
